In patent publication EP4671240A1, “SALT CONTAINING AROMATIC RING DERIVATIVE ANTAGONIST, PREPARATION METHOD THEREFOR, AND APPLICATION THEREOF” (Jiangsu Hansoh Pharmaceutical Group Co., Ltd., priority 2023, dated 2024):
Where a name gives a salt, the structure may show the parent alone.

Key:
[1] = Solid stability experiment of crystal forms of salts; type: physicochemical; conditions: for XRPD: after treatment under light, high humidity, high temperature and 50°C/RH75%
Description: To investigate the physical and chemical stability of crystal forms of the compound under high temperature, high humidity, high temperature and high humidity, and light conditions, thereby providing a basis for crystal form screening and storage.
4.1.3.1 Appropriate amounts of crystal form B of the hydrochloride salt, crystal form A of the methanesulfonic acid salt, crystal form A of the sulphuric acid salt, and crystal form A of the hydrobromic acid salt of the compound 4'-((2-butyl-4-oxo-1,3-diazaspiro[4.4]non-1-en-3-yl)methyl-d2)-N-(4-chloro-5-methylisoxazol-3-yl)-2'-(ethoxymethyl)-[1,1'-biphenyl]-2-sulfonamide were weighed and treated under light (5000±500lux), high humidity (25°C, 92.5%), high temperature (60°C), and 50°C±2°C/RH75%±5% for a certain period of time, and then their XRPD, purity and impurity content data were measured.
The maximum individual impurity increase for crystal form B of hydrochloride salt, crystal form A of methanesulfonic acid salt and crystal form A of sulphuric acid salt was determined by comparing Day 20 with Day 0, whereas for crystal form A of hydrobromic acid salt, it was determined by comparing Day 10 with Day 0.

[2] = Hygroscopicity experiment (dynamic vapor sorption); type: physicochemical
Description: To investigate the hygroscopicity of crystal form B of the hydrochloride salt of the compound 4'-((2-butyl-4-oxo-1,3-diazaspiro[4.4]non-1-en-3-yl)methyl-d2)-N-(4-chloro-5-methylisoxazol-3-yl)-2'-(ethoxymethyl)-[1,1'-biphenyl]-2-sulfonamide under different relative humidity conditions, thereby providing a basis for compound crystal form screening and storage.
Crystal form B of the hydrochloride salt of the compound 4'-((2-butyl-4-oxo-1,3-diazaspiro[4.4]non-1-en-3-yl)methyl-d2)-N-(4-chloro-5-methylisoxazol-3-yl)-2'-(ethoxymethyl)-[1,1'-biphenyl]-2-sulfonamide was placed in saturated water vapor with different relative humidity to allow the compound and the water vapor to reach dynamic equilibrium, and the percentage of hygroscopic weight gain of the compound after equilibrium was calculated.

[3] = Liver microsomal metabolism stability assay (human); type: in vitro ADME; conditions: human liver microsomes, 60 min, compound 1 µM
Description: (§1) The objective of this experiment was to detect the stability of the example compounds in liver microsomes of rats, dogs and humans.
(§2) Formulation of compound working solution: compound stock solution was added to phosphate buffer to a final concentration of 20 µM.
(§3) Dilution was performed with 100 mM phosphate buffer to a final concentration of 0.625 mg/mL.
(§4) NADPH (reduced nicotinamide adenine dinucleotide phosphate) and UDPGA (uridine diphosphate glucuronic acid) were weighed, and 100 mM phosphate buffer was added to a final concentration of 20 mM.
(§5) 1 mg of Alamethicin was weighed, and 200 µL of DMSO was added to formulate a 5 mg/mL solution. Then dilution was performed with phosphate buffer to a final concentration of 50 µg/mL.
(§6) Stop solution: cold acetonitrile containing 100 ng/mL labetalol hydrochloride and 400 ng/mL tolbutamide as internal standards.
(§7) 400 µL of formulated liver microsomes, 25 µL of compound working solution and 25 µL of Alamethicin were added in sequence to a 96-well plate, and the mixture was pre-incubated at 37°C for 10 min. Then 50 µL of formulated NADPH/UDPGA was added to start the reaction and the mixture was incubated at 37°C. The total volume of the reaction system was 500 µL. The final contents of each component are as follows:
(§8) • Instrument: Shimadzu LC-30 AD; • Chromatographic column: XBridge® C18 (50*4.6 mm, 5 µm particle size); • Mobile phase: A: 0.1% formic acid solution, B: methanol • Elution gradient: 0.2-1.6 min 5% A to 95% A, 3.0-3.1 min 95% A to 5% A • Run time: 4.0 min.
(§9) • Instrument: API5500 liquid chromatography-mass spectrometer, AB Sciex; • Ion source: electrospray ionization source (ESI); • Drying gas: N2, temperature 500°C; • Electrospray voltage: 5000 V; • Detection mode: positive ion detection; • Scan mode: Multiple Reaction Monitoring (MRM) mode.

[4] = Liver microsomal metabolism stability assay (rat); type: in vitro ADME; conditions: rat liver microsomes, 60 min, compound 1 µM
Description: as §1, §2, §3, §4, §5, §6, §7, §8, §9

[5] = Liver microsomal metabolism stability assay (dog); type: in vitro ADME; conditions: dog liver microsomes, 60 min, compound 1 µM
Description: as §1, §2, §3, §4, §5, §6, §7, §8, §9

[6] = 50°C&75%RH, Day 20 compared with Day 0
[7] = high humidity 25°C, 92.5% RH, Day 20 compared with Day 0
[8] = high temperature 60°C, Day 20 compared with Day 0
[9] = light 5000±500lux, Day 20 compared with Day 0

| Compound | Maximum individual impurity increase ([1]; 50°C&75%RH, Day 10 compared with Day 0) [%] | XRPD [1] | Maximum individual impurity increase ([1]; high humidity 25°C, 92.5% RH, Day 10 compared with Day 0) [%] | Maximum individual impurity increase ([1]; high temperature 60°C, Day 10 compared with Day 0) [%] | Maximum individual impurity increase [1, 6] [%] | Maximum individual impurity increase [1, 7] [%] | Maximum individual impurity increase [1, 8] [%] | Maximum individual impurity increase [1, 9] [%] | hygroscopic weight gain ([2]; RH80%, 25°C, DVS) [%] | XRPD pattern after moisture absorption and desorption ([2]; after 2 cycles under 0-95% relative humidity) | Human Remaining rate [3] [%] | Rat Remaining rate [4] [%] | Dog Remaining rate [5] [%] |
| --- | --- | --- | --- | --- | --- | --- | --- | --- | --- | --- | --- | --- | --- |
| [2H]C([2H])(c1ccc(-c2ccccc2S(=O)(=O)Nc2noc(C)c2Cl)c(COCC)c1)N1C(=O)C2(CCCC2)N=C1CCCC [Crystal form A of hydrobromic acid salt, 4'-((2-butyl-4-oxo-1,3-diazaspiro[4.4]non-1-en-3-yl)methyl-d2)-N-(4-chloro-5-methylisoxazol-3-yl)-2'-(ethoxymethyl)-[1,1'-biphenyl]-2-sulfonamide] | 0.02 | Crystal form unchanged | 0.02 | 0.05 | – | – | – | – | – | – | – | – | – |
| [2H]C([2H])(c1ccc(-c2ccccc2S(=O)(=O)Nc2noc(C)c2Cl)c(COCC)c1)N1C(=O)C2(CCCC2)N=C1CCCC [Crystal form A of methanesulfonic acid salt] [4'-((2-butyl-4-oxo-1,3-diazaspiro[4.4]non-1-en-3-yl)methyl-d2)-N-(4-chloro-5-methylisoxazol-3-yl)-2'-(ethoxymethyl)-[1,1'-biphenyl]-2-sulfonamide] | – | Crystal form unchanged | – | – | 0.08 | <0.01 | 0.05 | 0.09 | – | – | – | – | – |
| [2H]C([2H])(c1ccc(-c2ccccc2S(=O)(=O)Nc2noc(C)c2Cl)c(COCC)c1)N1C(=O)C2(CCCC2)N=C1CCCC [Crystal form A of sulphuric acid salt, 4'-((2-butyl-4-oxo-1,3-diazaspiro[4.4]non-1-en-3-yl)methyl-d2)-N-(4-chloro-5-methylisoxazol-3-yl)-2'-(ethoxymethyl)-[1,1'-biphenyl]-2-sulfonamide] | – | Crystal form unchanged | – | – | 0.14 | 0.05 | 0.11 | 0.06 | – | – | – | – | – |
| [2H]C([2H])(c1ccc(-c2ccccc2S(=O)(=O)Nc2noc(C)c2Cl)c(COCC)c1)N1C(=O)C2(CCCC2)N=C1CCCC [Crystal form B of hydrochloride salt, 4'-((2-butyl-4-oxo-1,3-diazaspiro[4.4]non-1-en-3-yl)methyl-d2)-N-(4-chloro-5-methylisoxazol-3-yl)-2'-(ethoxymethyl)-[1,1'-biphenyl]-2-sulfonamide] | – | Crystal form unchanged | – | – | <0.01 | <0.01 | 0.02 | 0.04 | 0.378 | no change | – | – | – |
| [2H]C([2H])(OCC)c1cc(CN2C(=O)C3(CCCC3)N=C2CCCC)ccc1-c1ccccc1S(=O)(=O)Nc1noc(C)c1Cl [Example 4, 4'-((2-Butyl-4-oxo-1,3-diazospiro[4.4]non-1-en-3-yl)methyl)-N-(4-chloro-5-methylisoxazol-3-yl)-2'-(ethoxydeuteromethyl)-[1,1'-biphenyl]-2-sulfonamide] | – | – | – | – | – | – | – | – | – | – | 30.7 | 17.1 | 23.9 |
